{"source": "patent EP2298778A1", "about": "“IMIDAZOTHIAZOLE DERIVATIVE HAVING 4,7-DIAZASPIROÝ2.5¨OCTANE RING STRUCTURE” (Daiichi Sankyo Company, Limited, priority 2008, dated 2009)", "test": "Metabolic stability test (microsomal metabolism test)", "type": "in vitro ADME", "settings": "pH 7.4; human-derived liver microsomes, test compound remaining after addition of NADP+ and incubation at 37°C for 30 minutes; read-out: metabolic stability of T/C%", "procedure,_shortened": "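Test compound was added as a 3 µM solution to human liver microsomes (0.3–1.5 mgP/mL) in pH 7.4 phosphate buffer with G6P, G6P dehydrogenase and MgCl2. This was preincubated 20 min at 37°C, then 3 mM NADP+ solution was added and incubated 30 min at 37°C. T/C (%) is compound remaining after versus before NADP+ addition.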", "data": [{"smiles": "CC(C)C1=C(C(=O)N2[C@H](C)CC[C@H]2C(=O)N2CCNC3(CC3)C2)SC2=N[C@@](C)(c3ccc(C#N)cc3)[C@@H](c3ccc(Cl)c(F)c3)N21", "note": "[Example 30, 4-[(5R,6S)-5-(4-chloro-3-fluorophenyl)-2-{[(2S,5R)-2-(4,7-diazaspiro[2.5]oct-7-ylcarbonyl)-5-methylpyrrolidin-1-yl]carbonyl}-3-isopropyl-6-methyl-5,6-dihydroimidazo[2,1-b][1,3]thiazol-6-yl]benzonitrile]", "values": [{"measurement": "remaining at 0.5 h", "value": "≥ 50", "unit": "%"}]}, {"smiles": "CC(C)C1=C(C(=O)N2C(=O)CC[C@H]2C(=O)N2CCNC3(CC3)C2)SC2=N[C@@](C)(c3ccc(Cl)nc3)[C@@H](c3ccc(Cl)c(F)c3)N21", "note": "[Example 44, (5S)-1-{[(5R,6S)-5-(4-chloro-3-fluorophenyl)-6-(6-chloropyridin-3-yl)-3-isopropyl-6-methyl-5,6-dihydroimidazo[2,1-b][1,3]thiazol-2-yl]carbonyl}-5-(4,7-diazaspiro[2.5]oct-7-ylcarbonyl)pyrrolidin-2-one]", "values": [{"measurement": "remaining at 0.5 h", "value": "≥ 50", "unit": "%"}]}, {"smiles": "CC(C)C1=C(C(=O)N2[C@H](CF)CC[C@H]2C(=O)N2CCN(C)C3(CC3)C2)SC2=N[C@@](C)(c3ccc(Cl)cc3)[C@@H](c3ccc(Cl)cc3)N21", "note": "[Example 39, 7-[(5S)-1-{[(5R,6S)-5,6-bis(4-chlorophenyl)-3-isopropyl-6-methyl-5,6-dihydroimidazo[2,1-b][1,3]thiazol-2-yl]carbonyl}-5-(fluoromethyl)-L-prolyl]-4-methyl-4,7-diazaspiro[2.5]octane]", "values": [{"measurement": "remaining at 0.5 h", "value": "≥ 50", "unit": "%"}]}, {"smiles": "CC(C)C1=C(C(=O)N2CCC[C@H]2C(=O)N2CC3(CC3)NC[C@H]2C)SC2=N[C@@](C)(c3ccc(Cl)nc3)[C@@H](c3ccc(Cl)c(F)c3)N21", "note": "[Example 64, (6R)-7-(1-{[(5R,6S)-5-(4-chloro-3-fluorophenyl)-6-(6-chloropyridin-3-yl)-3-isopropyl-6-methyl-5,6-dihydroimidazo[2,1-b][1,3]thiazol-2-yl]carbonyl}-L-prolyl)-6-methyl-4,7-diazaspiro[2.5]octane]", "values": [{"measurement": "remaining at 0.5 h", "value": "≥ 50", "unit": "%"}]}, {"smiles": "CC[C@H]1CNC2(CC2)CN1C(=O)[C@@H]1CCCN1C(=O)C1=C(C(C)C)N2C(=N[C@@](C)(c3ccc(Cl)nc3)[C@H]2c2ccc(Cl)c(F)c2)S1", "note": "[Example 61, (6S)-7-(1-{[(5R,6S)-5-(4-chloro-3-fluorophenyl)-6-(6-chloropyridin-3-yl)-3-isopropyl-6-methyl-5,6-dihydroimidazo[2,1-b][1,3]thiazol-2-yl]carbonyl}-L-prolyl)-6-ethyl-4,7-diazaspiro[2.5]octane]", "values": [{"measurement": "remaining at 0.5 h", "value": "≥ 50", "unit": "%"}]}]}
